# According to patent US5143839A, “Assay of endopeptidases and novel purified bacterial enzyme” (Ramot Ltd., priority 1989, dated 1992):
# Starred links: 1 amine or outer side, 2 acyl side, 3 side chain; linkers in the order of their positions; H or OH if unused. Residues, ends and D or L forms follow the SMILES beside them. *: point of attachment. pNA = O=[N+]([O-])c1ccc(N*)cc1; Suc = O=C(CCC(=O)[*:2])[*:1]
# Assays:
# Human neutrophils [1] = assay: Hydrolysis of the substrate by human neutrophils; format: cell-based; settings: substrate 0.4 mM, pH 7.5; neutrophils from a healthy donor, 5×10^5 cells/ml
# Experimental: (§1) Neutral endopeptidase and neutral proteinase activities were assayed by the two-stage assay using the synthetic substrate Suc-Ala-Ala-Leu-NH-Np supplemented with Streptomyces griseus aminopeptidase, usually 6-7 μg/ml. Assays were performed in 0.1M NaCl-0.05M Tris.HCl, pH 7.5 at 25° C., unless otherwise stated, with or without 0.01M CaCl2. Assay volume was 1 ml or 2.5 ml when using a Varian Techtron spectrophotometer or 0.2 ml at 23° C. when performed with microplates (Munc Immuno Plate II F) using a Kinetic Microplate Reader (Molecular Devices Corp.). Activity was measured by following the increase in absorbance at 405 nm, due to the release of 4-nitroaniline, E405 =10,600M^-1 cm^-1 [14 ]. Molar concentration of thermolysin was estimated using A280 1% =17.65 [15] and molecular mass of 34,600 Da; molar concentration of bovine kidney neutral endopeptidase by protein determination and molecular mass of 90 kDa, deduced from SDS PAGE. Both endopeptidase 24.11 from bovine kidney and thermolysin cleave the Ala-Leu bond of the compound at a very fast rate (Table 3). The Leu residue of the substrate interacts with the major hydrophobic specificity sites of the enzymes (S'1), whereas the two Ala residues interact with additional subsites (S1, S2), thereby contributing to catalysis and/or binding. Even the 4-nitroaniline leaving group probably interacts with the enzyme at subsite S'2. […]
# Thermolysin = target: T1, Thermolysin (Bacillus thermoproteolyticus, UniProt P00800); assay: Two-stage assay with Suc-Ala-Ala-Leu-NH-Np plus S. griseus aminopeptidase: inhibition by phosphoramidon; format: biochemical
# T1 sequence (P00800 233-548): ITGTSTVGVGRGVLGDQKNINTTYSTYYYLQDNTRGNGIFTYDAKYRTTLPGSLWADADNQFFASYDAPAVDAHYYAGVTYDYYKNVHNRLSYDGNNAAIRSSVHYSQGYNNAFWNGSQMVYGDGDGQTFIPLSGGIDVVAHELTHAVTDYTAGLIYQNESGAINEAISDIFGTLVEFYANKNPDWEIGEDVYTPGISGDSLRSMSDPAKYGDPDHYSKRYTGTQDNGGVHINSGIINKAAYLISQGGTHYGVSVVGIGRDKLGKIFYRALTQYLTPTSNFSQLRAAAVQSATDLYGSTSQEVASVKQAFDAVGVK
# Experimental: (§2) Neutral endopeptidase and neutral proteinase activities were assayed by the two-stage assay using the synthetic substrate Suc-Ala-Ala-Leu-NH-Np supplemented with Streptomyces griseus aminopeptidase, usually 6-7 μg/ml. Assays were performed in 0.1M NaCl-0.05M Tris.HCl, pH 7.5 at 25° C., unless otherwise stated, with or without 0.01M CaCl2. Assay volume was 1 ml or 2.5 ml when using a Varian Techtron spectrophotometer or 0.2 ml at 23° C. when performed with microplates (Munc Immuno Plate II F) using a Kinetic Microplate Reader (Molecular Devices Corp.). Activity was measured by following the increase in absorbance at 405 nm, due to the release of 4-nitroaniline, E405 =10,600M^-1 cm^-1 [14 ]. Molar concentration of thermolysin was estimated using A280 1% =17.65 [15] and molecular mass of 34,600 Da; molar concentration of bovine kidney neutral endopeptidase by protein determination and molecular mass of 90 kDa, deduced from SDS PAGE. Both endopeptidase 24.11 from bovine kidney and thermolysin cleave the Ala-Leu bond of the compound at a very fast rate (Table 3). The Leu residue of the substrate interacts with the major hydrophobic specificity sites of the enzymes (S'1), whereas the two Ala residues interact with additional subsites (S1, S2), thereby contributing to catalysis and/or binding. Even the 4-nitroaniline leaving group probably interacts with the enzyme at subsite S'2. Previously reported assays of endopeptidase 24.11 usually utilized a hydrophobic Phe residue, but Leu seems preferable in reaching higher kcat values. The rapid hydrolysis of the Leu residue is also preferable for the present two-stage assay utilizing Steptomyces aminopeptidase, since this enzyme very rapidly hydrolyzes the product of the endopeptidase attack, Leu-NH-Np. The rapid hydrolysis coupled with Km values in the 1 mM range and overall kcat /Km values in the 10^6 M^-1 s^-1 range (Table 3), render the substrate most suitable for detailed kinetic investigations of the enzymes and for detection of the 24.11 and 24.4 classes of enzymes in mammalian tissues and in bacterial extracellular fluids, respectively.
# (§3) Like other previously reported substrates for endopeptidase 24.11, the substrate employed may, in principle, be hydrolyzed by chymotrypsin-like enzymes. To assess the contribution of the neutral endopeptidases and neutral proteinases 1 the observed color development, the specific inhibitor of these classes of enzymes phosphoramidon was added (Table 4).
# (§4) Inhibition was measured at pH 7.5, 25° C., in the presence of 10 mM CaCl2 except for the neutrophils that were assayed at 37° C. and in the absence of added Ca^2+. The substrate Suc-Ala-Ala-Leu-NH-Npat 0.4 mM was used. […]
# [2] = target: T2, Endopeptidase 24.11 from bovine kidney (Bos taurus, UniProt E1BPL8); assay: as above; format: biochemical
# T2 construct: Endopeptidase 24.11 from bovine kidney was purified by Triton X-100 extraction; from tissue; host or cells: bovine kidney
# T2 sequence (E1BPL8 1-750): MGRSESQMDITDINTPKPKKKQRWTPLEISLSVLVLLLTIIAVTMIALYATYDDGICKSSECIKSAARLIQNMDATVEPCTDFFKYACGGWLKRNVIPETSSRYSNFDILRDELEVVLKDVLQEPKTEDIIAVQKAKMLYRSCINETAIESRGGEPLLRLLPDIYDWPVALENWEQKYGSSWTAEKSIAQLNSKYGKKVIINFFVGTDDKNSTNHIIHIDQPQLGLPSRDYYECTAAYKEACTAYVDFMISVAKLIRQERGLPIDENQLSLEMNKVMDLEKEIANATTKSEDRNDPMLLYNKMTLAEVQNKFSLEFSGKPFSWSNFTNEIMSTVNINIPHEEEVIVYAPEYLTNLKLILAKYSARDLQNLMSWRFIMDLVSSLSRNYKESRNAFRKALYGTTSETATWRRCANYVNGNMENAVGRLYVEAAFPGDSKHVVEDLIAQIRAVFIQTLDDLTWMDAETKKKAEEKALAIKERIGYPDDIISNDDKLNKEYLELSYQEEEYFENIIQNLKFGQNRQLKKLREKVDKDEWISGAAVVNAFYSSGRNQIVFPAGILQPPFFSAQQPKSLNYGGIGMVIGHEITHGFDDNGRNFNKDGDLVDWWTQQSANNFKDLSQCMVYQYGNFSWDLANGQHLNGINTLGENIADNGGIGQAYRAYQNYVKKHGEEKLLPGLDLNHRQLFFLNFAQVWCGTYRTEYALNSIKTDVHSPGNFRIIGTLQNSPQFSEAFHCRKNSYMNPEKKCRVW
# Experimental: as §2, §3, §4
# Human neutrophils [3] = assay: Two-stage assay on intact cells: inhibition by phosphoramidon; format: cell-based
# Experimental: as §1, with “3).” for “3). The Leu residue of the substrate interacts with the major hydrophobic specificity sites of the enzymes (S'1), whereas the two Ala residues interact with additional subsites (S1, S2), thereby contributing to catalysis and/or binding. Even the 4-nitroaniline leaving group probably interacts with the enzyme at subsite S'2.”
# (§5) Inhibition was measured at pH 7.5, 25° C., in the presence of 10 mM CaCl2 except for the neutrophils that were assayed at 37° C. and in the absence of added Ca^2+. […]
# B. cereus culture = target: T3, B. cereus culture (Bacillus cereus, UniProt P05806); assay: Two-stage assay on bacterial culture filtrate: inhibition by phosphoramidon; format: biochemical
# T3 construct: B. cereus culture filtrate, 5 μl/ml substrate; endogenous in cells; host or cells: Bacillus cereus X-3 DSM 3101 culture filtrate
# Experimental: Bacillus cereus (X-3 DSM 3101, German Collection of Microorganisms, Braunschweig, FRG) containing the neural proteinase were obtained by overnight cultivation in a rich medium supplemented with calcium chloride.
# as §1, with “PAGE.” for “PAGE. Both endopeptidase 24.11 from bovine kidney and thermolysin cleave the Ala-Leu bond of the compound at a very fast rate (Table 3). The Leu residue of the substrate interacts with the major hydrophobic specificity sites of the enzymes (S'1), whereas the two Ala residues interact with additional subsites (S1, S2), thereby contributing to catalysis and/or binding. Even the 4-nitroaniline leaving group probably interacts with the enzyme at subsite S'2.”
# as §5
# T3 sequence (P05806 250-566): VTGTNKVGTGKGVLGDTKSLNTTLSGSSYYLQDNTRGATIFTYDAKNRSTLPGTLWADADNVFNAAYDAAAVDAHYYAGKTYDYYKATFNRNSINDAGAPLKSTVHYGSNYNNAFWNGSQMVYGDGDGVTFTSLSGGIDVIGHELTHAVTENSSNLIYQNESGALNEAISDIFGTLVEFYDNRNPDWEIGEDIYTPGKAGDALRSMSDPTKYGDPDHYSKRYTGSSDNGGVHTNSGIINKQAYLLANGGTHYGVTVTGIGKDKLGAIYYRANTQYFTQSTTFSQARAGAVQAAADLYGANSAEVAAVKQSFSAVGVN
Compound,rate of substrate hydrolysis (Human neutrophils [1]),"inhibition at 18 µM (Thermolysin; phosphoramidon 18.0 μM, pH 7.5, 25° C., 10 mM CaCl2, substrate 0.4 mM, enzyme 1.5×10^-9 M) [%]",effect of inhibitor on activity (Thermolysin; purified enzyme),"inhibition at 3.6 µM ([2]; phosphoramidon 3.6 μM, pH 7.5, 25° C., 10 mM CaCl2, substrate 0.4 mM, enzyme 2.2×10^-9 M) [%]",effect of inhibitor on activity ([2]; purified enzyme),"inhibition at 3.6 µM (Human neutrophils [3]; Homo sapiens, Neutrophil, phosphoramidon 3.6 μM, pH 7.5, 37° C., no added Ca2+, substrate 0.4 mM, 5×10^5 cells/ml) [%]",effect of inhibitor on enzymatic reaction (Human neutrophils [3]; intact neutrophils),effect of inhibitor on enzymatic reaction (B. cereus culture; bacterial culture),"inhibition at 18 µM (B. cereus culture; phosphoramidon 18.0 μM, pH 7.5, 25° C., 10 mM CaCl2, substrate 0.4 mM, culture filtrate 5 μl/ml substrate) [%]"
CC(C)C[C@H](NC(=O)[C@H](C)NC(=O)[C@H](C)NC(=O)CCC(=O)O)C(=O)Nc1ccc([N+](=O)[O-])cc1 [Suc-Ala-Ala-Leu-NH-Np] (Suc-Ala-Ala-Leu-pNA),~ 1.3 nmoles/min/10^6 cells,,,,,,,,
CC(C)C[C@H](NP(=O)(O)O[C@@H]1O[C@@H](C)[C@H](O)[C@@H](O)[C@H]1O)C(=O)N[C@@H](Cc1c[nH]c2ccccc12)C(=O)O [phosphoramidon],,> 99,completely abolishes the activity,> 99,completely abolishes the activity,> 95,strongly inhibits,strongly inhibits,~95
